Measurements taken from article PMC10877577 (ACS Chemical Biology, 2024).
Entries after “also recorded” stand apart in the source; their conditions may differ. Read-outs that look alike come from different tables or passages of the source.

Tests used:
[1] = tested on: SupT1 GWARA-CD8stk-CD28TM and SupT1 aMinoC1-CD8stk-CD28TM cells; assay: Cell–cell binding assay (aggregate formation); type: cell-based, human; conditions: 10 μM minocycline, 24 h time course
Method: SupT1 cells were transduced to express GWARA-CD8a spacer-CD28TM-2A-mCherry and aMinoC1 sdAb-CD8 spacer-CD28TM-2A-eGFP. 0.5 × 10^4 cells were cocultured in RPMI (RPMI-1640) supplemented with 10% fetal bovine serum (FBS) and 2 mM GlutaMAX. […] Images were captured using an IncuCyte real-time imager. Time-course images were analyzed using ImageJ (NIH v1.53t) using an image analyzer (20 px^2-infinite size, 0.0–1.0 circularity).

[2] = tested on: GWARA-flexi-IL12 secretion from transduced PBMCs; assay: IL12 secretion assay (KDEL retention system); type: cell-based, human; conditions: minocycline up to 2.5 μM
Method: (§1) IFN-γ, IL2, and IL12 secretion was measured by collecting the supernatant from the respective cell-based assay and frozen at −20 °C prior to analysis by ELISA. IFN-γ, IL2, and IL12 ELISAs were carried out using the Human IFN-γ ELISA MAX Deluxe kit, Human IL2 ELISA MAX Deluxe kit, and Human IL12 (p70) ELISA MAX Deluxe kit in accordance with the manufacturer’s instructions (BioLegend).
Transduced PBMCs were stained for the independent HA expression marker by using an anti-HA-PE antibody to determine transduction efficiency. Cells were normalized to 60% using nontransduced T cells prior to assay set up. For the assay set up, 0.5 × 10^4 transduced cells were cultured in RPMI (RPMI-1640) supplemented with 10% fetal bovine serum (FBS), 2 mM GlutaMAX, and IL2 at a concentration of 100 UI/mL. […] IL12 ELISA was carried out following manufacturer’s instructions (BioLegend, 431704).

[3] = tested on: MinoCAR-transduced PBMC against SupT1-EGFR+ target cells; type: cell-based; conditions: compared to 0 μM minocycline
Method: Transduced CAR T cells were determined by staining for the transduction marker RQR8 and normalized by the addition of nontransduced T cells. Effector cells were cocultured with 5.0 × 10^4 number of target cells (SupT1-NT, SupT1-EGFR+, SKOV3-mKate) to achieve the desired effector cell to target ratio. […] Cocultures were incubated for 24–72 h at 37 °C and 5% CO2. After incubation, plates were centrifuged at 400g for 5 min, and the supernatant containing secreted cytokines was collected for cytokine analysis. Cells were stained with anti-hCD34-APC and anti-CD3-PeCy7 to differentiate effector T cells and target cells. Cells were washed with 300 μL o PBS and stained with SYTOX Blue Dead Cell Stain dye. The percentage of target cell survival was measured relative to the number of live target cells cocultured with nonspecific CAR T cells or nontransduced PBMCs.

Nalm6 EGFR+ tumor = assay: Xenograft model with NALM6, BLI readout; type: in vivo, NSG mice; conditions: minocycline hydrochloride 0.4 mg i.p. every 2–3 days; day 7 to 13 post CAR-T
Method: All animal studies were carried out in accordance with a UK Home Office-approved project license and were approved by the UCL Biological Services Ethical Review Committee. NSG mice (female, aged 6–10 weeks) were acquired from Charles River Laboratories and raised under pathogen-free conditions. On day 4, 0.5 × 10^6 Nalm6 cells engineered to express EGFR and HA-luciferase were injected intravenously into NSG mice. Tumor engraftment was assessed through bioluminescence imaging, employing the IVIS Spectrum system (PerkinElmer) following intraperitoneal injection of 2 mg D-luciferin. Photon emission from EGFR^+ NALM6-FLuc cells, expressed in photon per second per cm^2 per steradian, was quantified using Living Image software (PerkinElmer). On day 0, mice were randomly assigned to different cohorts prior to intravenous injection of 1 × 10^6 CAR T cells. The experiment was conducted without blinding; however, the use of bioluminescence imaging provides an objective assessment of tumor growth in this model. […] Intraperitoneal injection of 100 μL (0.4 mg) was administered every 2–3 days.

[4] = tested on: MinoCAR-transduced PBMC against SupT1-EGFR+ target cells; assay: Cytokine release of MinoCAR PBMCs; type: cell-based, human; conditions: minocycline supplementation, 24 h, 1:2 E/T
Method: Transduced CAR T cells were determined by staining for the transduction marker RQR8 and normalized by the addition of nontransduced T cells. Effector cells were cocultured with 5.0 × 10^4 number of target cells (SupT1-NT, SupT1-EGFR+, SKOV3-mKate) to achieve the desired effector cell to target ratio. Where appropriate, minocycline was supplemented as a part of the culture conditions. Cocultures were incubated for 24–72 h at 37 °C and 5% CO2. After incubation, plates were centrifuged at 400g for 5 min, and the supernatant containing secreted cytokines was collected for cytokine analysis. Cells were stained with anti-hCD34-APC and anti-CD3-PeCy7 to differentiate effector T cells and target cells. Cells were washed with 300 μL o PBS and stained with SYTOX Blue Dead Cell Stain dye. The percentage of target cell survival was measured relative to the number of live target cells cocultured with nonspecific CAR T cells or nontransduced PBMCs.
as §1

aMinoC1-peptide complex = assay: SPR rechallenge: small-molecule-driven dissociation of peptide-Fc from immobilized aMinoC1; type: binding; conditions: peptide-Fc 100 nM, small molecule 1 μM
Method: Binding assays were carried out using 1x HBS-EP+ running buffer. Various concentrations (2.5 μM with 2-fold serial dilutions) of the analyte were injected for 150 s at 30 μL/min with 150 s dissociation time. Glycine-HCl (pH 2.0) was used as the regeneration buffer for the sensor chips. For the rechallenge experiment, aMinoC1 was immobilized on a CM5 sensor chip and CX7C peptide-Fc conjugates were loaded at 100 nM and injected as the analyte for 150 s at 30 μL/min. Following the injection of peptide-Fc, a small molecule at 1 μM was injected for 300 s at 30 μL/min, using dual injection function on a Biacore 8k instrument, to dissociate the peptide-Fc from the aMinoC1-peptide complex. The system was then washed using HBS-P^+ buffer for 300 s at 30 μL/min prior to rechallenge with peptide-Fc. The cycle was repeated three times following a final dissociation step of 300 s. For the alanine scanning experiments, the anti-minocycline antibody (sdAb-muIgG2a-Fc fusion) was captured on a Protein A series S sensor chip, to a density of 3000 RU. […] Glycine-HCl (pH 1.5) was used as the regeneration buffer. In each case, flow cell 1 was used for reference subtraction, and a “0 concentration” sensogram of buffer alone was used as a double reference subtraction to factor for drift. Data analysis was carried out using Biacore T200 Evaluation Software, version 3.0, and Biacore Insight evaluation software. The 1:1 Langmuir binding model was used to calculate the association (ka), dissociation (kd) rate constants, and equilibrium dissociation constant (KD).

[5] = in vivo; cited from earlier work

CN(C)c1ccc(O)c2c1C[C@H]1C[C@H]3[C@H](N(C)C)C(O)=C(C(N)=O)C(=O)[C@@]3(O)C(O)=C1C2=O [minocycline]
cell aggregate formation [1]: random distribution of cells without a clear spatial organization | IL12 release ([2]; day 2, aMinoC1-KDEL construct): up to 150 pg/mL | IL12 release ([2]; day 7, aMinoC1-KDEL construct): ≤ 2.2 µg/mL | increase in target cell survival ([3]; 24 h): 2.5 fold | increase in target cell survival ([3]; 72 h): 35 fold | effect of minocycline on MinoCAR efficacy (BLI) (Nalm6 EGFR+ tumor): Significant inhibition of MinoCAR; also recorded: significantly reduced MinoCAR efficacy | reduction (minus) of IFN-γ secretion [4]: 2.7 fold | reduction (minus) of IL2 secretion [4]: 1.9 fold | GWARA-Fc dissociation from immobilized aMinoC1 on small-molecule injection (aMinoC1-peptide complex): acceleration of GWARA-Fc dissociation; also recorded: specifically reversed | peptide-Fc (HWAQA, PWAYS and QWAMM) dissociation from immobilised aMinoC1 on small-molecule injection (aMinoC1-peptide complex): acceleration | blood–brain barrier crossing [5]: can cross the blood–brain barrier | half-life in blood [5]: 12 to 24 h | time of serum concentration peak [5]: 2 to 3 h
